Assay results as given in PMC9569954, “The Antidepressant-like Activity, Effects on Recognition Memory Deficits, Bioavailability, and Safety after Chronic Administration of New Dual-Acting Small Compounds Targeting Neuropsychiatric Symptoms in Dementia” (International Journal of Molecular Sciences, 2022).

Experiments:
[1] = tested on: (+)-MK-801-induced memory deficits; assay: Novel object recognition (NOR) test in (+)-MK-801 treated rats; format: in vivo, male Wistar rats; conditions: rat; for Total Exploratory Time in T2 Session: vehicle 49.67 ± 4.63
Description: The rats were injected with the respective compounds for 21 consecutive days at the minimum active doses selected previously, based on acute treatment and assessment in the NOR test. The protocol for the NOR test was adapted from the original work and the test was performed according to the previously described protocol, 24 h after the last injection of the investigated compound. The discrimination index (DI) was calculated according to the formula:(7) DI=(EB−EA)/(EA+EB) where EB is the exploration time of novel object during the T2 session and EA is the exploration time of […].
PQA-AZ4 and PQA-AZ-6 were administered for 60 and 30 min, respectively, before the T1 phase (the familiarization phase). MK-801 was used to attenuate learning and was administered at a dose of 0.1 mg/kg (i.p.) 30 min before the familiarization phase (T1). The total exploration time in T2 was used to determine the influence of the treatment on the exploratory activity of the animals.

[2] = tested on: Bdnf gene; assay: Bdnf gene expression in brain structures (RT-qPCR, ex vivo); set-up: species or system rats; conditions: rat, 1 mg/kg/day i.p., 21 days
Description: Animals in all treatment groups were sacrificed by rapid decapitation immediately after the behavioral tests, when the brains and blood samples were collected. For quantitative reverse transcription-polymerase chain reaction (RT-qPCR), the brains of rats were rapidly removed, and the hippocampus and prefrontal cortex were dissected on an ice-cold glass plate. The tissues were frozen in dry ice and stored at −80 °C until required.
The total RNA was extracted from tissues using an RNA Isolation kit (Thermo Fisher Scientific, Rockford, IL, USA), and its concentration was normalized to 20 ng/μL. Reverse transcription was performed with a High-Capacity Reverse Transcription Kit (Life Technologies, Grand Island, NY, USA). A qPCR fast 96-well reaction plate was used for the process with TaqMan Gene Expression assay (Life Technologies) for brain-derived neurotrophic factor Bdnf (Rn02531967_s1) on an Applied Biosystems® 7500 Fast Real-Time PCR Instrument (Applied Biosystems, Foster City, CA, USA), according to the manufacturer’s protocol. Glyceraldehyde-3-phosphate dehydrogenase, Gapdh (Rn01775763_g1), was selected as endogenous control, based on the pilot experiment. Relative normalized expression was calculated using the ΔΔCq method.

[3] = Body weight measurement; format: in vivo, rats; conditions: rat, 20-day administration, 1 mg/kg/day i.p.
Description: Body weight was measured every second day, immediately before the administration of drugs.

[4] = tested on: rats; assay: 18-hour spontaneous activity monitoring; format: in vivo, male Wistar rats; conditions: rat, after 20-day administration, 1 mg/kg/day i.p., 18-h monitoring
Description: Spontaneous activity was measured on the 20th day of the treatment with a special, innovative, radio-frequency identification system (RFID-system), TraffiCage (TSE-Systems, Bad Homburg, Germany). The test was conducted according to the method described previously. The animals had RFID transmitters implanted subcutaneously, which tracked the time they spent in different areas of the cage.

[5] = Serum glucose, triglyceride and cholesterol concentrations; format: in vivo, rats; conditions: rat, 1 mg/kg/day i.p., 21 days
Description: The blood samples were collected immediately after decapitation and then centrifuged at 600× g […], 4 °C, to separate the plasma. The blood was used to determine metabolic parameters such as glucose, cholesterol, and triglyceride levels, together with liver enzymatic activity.
Standard enzymatic spectrophotometric tests (Biomaxima S.A., Lublin, Poland) were used to determine glucose, cholesterol, and triglyceride levels in the serum. In the presence of an appropriate enzyme, the substrate was converted to a colored compound. Absorbance was measured at a wavelength of 500 nm.

[6] = tested on: rats; assay: Forced swim test (FST); format: in vivo, male Wistar rats; conditions: rat
Description: The rats were injected for 21 consecutive days at a dose of 1 mg/kg, similar to the dose used in acute treatment, as per data presented in Supplementary Materials (Table S1). The FST was conducted according to the method of Porsolt. On the first day of the experiment, the animals were gently placed individually for 15 min in Plexiglas cylinders (40 cm high, 18 cm in diameter) containing 15 cm of water maintained at 23–25 °C. On removal from water, the rats were placed for 30 min in a Plexiglas box under a 60 W bulb to dry. On the following day (24 h later), the rats were replaced in the cylinder and the total duration of immobility was recorded during the whole 5 min test period. Immobility was assigned when no additional activity was observed other than that necessary to keep the rat’s head above the water. Fresh water was used for each animal.
FST after acute administration of the investigated compounds
Rats were injected 60 min before the test at a dose of 1 mg/kg. FST was carried out according to the method of Porsolt, and the same procedure was used for chronic treatment.
Table S1. Effect of acute treatment of PQA-AZ4, PQA-AZ6, and PQ-10 on the immobility time in the […]
Compound (mg/kg) Immobility time (s)
Compounds were injected i.p. 60 min before the test. Values represent the means ± SEM of immobility in the FST during a 5 min test session. The data were analyzed using one -way ANOVA, followed by Bonferroni‘s post hoc test; NS = nonsignificant; N=7-8.

[7] = Ferric-reducing antioxidant power (FRAP) of serum; format: in vivo, rats; conditions: rat, 1 mg/kg/day i.p., 21 days
Description: The assay was performed according to Benzie and Strain [46] with some modifications. The FRAP working solution was prepared before the start of the analysis, namely, 0.3 mol acetate buffer (pH 3.6), 0.01 mol TPTZ (2,4,6-tripyridyl-s-triazine; Sigma-Aldrich) in 0.04 mol HCl (POCh, Gliwice, Poland), and 0.02 M FeCl3×6H2O in water (iron (III) chloride hexahydrate; Chempur, Piekary Śląskie, Poland) were mixed in a volumetric ratio of 10:1:1 and protected from light.
Next, 20 µL of the plasma sample tested, brain homogenate, or FeSO4×7H2O solution was mixed with 180 µL of the FRAP working solution. The mixtures obtained were incubated at 37 °C for 30 min and their absorbance was measured at 593 nm. FeSO4×7H2O (100–1000 µM/L) was used for a calibration curve. Deionized water with FRAP solution was used as a blank.

[8] = chronic 1 mg/kg/day i.p., 21 days

SMILES	Total Exploratory Time in T2 Session ([1]; (+)-MK-801 0.1 mg/kg i.p. + vehicle)	Bdnf expression upregulation vs control, hippocampus ([2]; hippocampus (Hipp))	Bdnf expression upregulation vs control, prefrontal cortex ([2]; prefrontal cortex (PFX))	weight gain vs vehicle [3]	spontaneous activity vs vehicle [4]	serum glucose concentration vs vehicle [5]	serum triglycerides concentration vs vehicle [5]	total cholesterol concentration vs vehicle [5]	Immobility time ([6]; acute 1 mg/kg i.p., 60 min before test, 5 min session, vehicle 255.9 ± 8.6)	antidepressant-like activity in FST [6, 8]	decrease of immobility vs. control group in FST [6, 8]	Total Exploratory Time in T2 Session ([1]; 0.3 mg/kg/day i.p. 21 days + (+)-MK-801 0.1 mg/kg)	effect on (+)-MK-801-induced recognition memory deficits (discrimination index) ([1]; 0.3 mg/kg/day i.p., 21 days, (+)-MK-801 0.1 mg/kg i.p.)	total antioxidant activity of serum (Fe2+ formed, FRAP) vs control [7]
C[C@]12N[C@H](Cc3ccccc31)c1ccccc12 [(+)-MK-801, Dizocilpine, reference compound]	44.00 ± 4.05 s	–	–	–	–	–	–	–	–	–	–	–	–	–
COc1cc2ncnc(N3CC[C@@H](Oc4cnc5ccccc5n4)C3)c2cc1OC [PQ-10, 6,7-dimethoxy-4-[(3R)-3-(2-quinoxalinyloxy)-1-pyrrolidinyl]-quinazoline, reference compound]	–	about 17 fold	about 34 fold	did not result in a change	No significant effect	did not significantly change	did not significantly change	slight but statistically significant (p < 0.05) increase	249.1 ± 10.4 s	showed antidepressant-like properties	about 9%	47.13 ± 5.69 F(2,18) = 0.3006; NS s	restored recognition memory deficits	comparable
